Results as given in ChEMBL document CHEMBL5352409, “Design, synthesis, and pharmacological evaluation of 2-(1-(1,3,4-thiadiazol-2-yl)piperidin-4-yl)ethan-1-ol analogs as novel glutaminase 1 inhibitors” (Eur J Med Chem, 2022).
Activity calls are given as the source filed them. No cut-off for these calls is given here.

Assays:
A549 [1] = experiment: Antiproliferative activity against human A549 cells assessed as reduction in cell viability; assay type: functional, cell-based
[2] = molecular target: T1, Glutaminase kidney isoform, mitochondrial (Homo sapiens, UniProt O94925); experiment: Inhibition of GLS1 (unknown origin)
T1 sequence (O94925 whole entry): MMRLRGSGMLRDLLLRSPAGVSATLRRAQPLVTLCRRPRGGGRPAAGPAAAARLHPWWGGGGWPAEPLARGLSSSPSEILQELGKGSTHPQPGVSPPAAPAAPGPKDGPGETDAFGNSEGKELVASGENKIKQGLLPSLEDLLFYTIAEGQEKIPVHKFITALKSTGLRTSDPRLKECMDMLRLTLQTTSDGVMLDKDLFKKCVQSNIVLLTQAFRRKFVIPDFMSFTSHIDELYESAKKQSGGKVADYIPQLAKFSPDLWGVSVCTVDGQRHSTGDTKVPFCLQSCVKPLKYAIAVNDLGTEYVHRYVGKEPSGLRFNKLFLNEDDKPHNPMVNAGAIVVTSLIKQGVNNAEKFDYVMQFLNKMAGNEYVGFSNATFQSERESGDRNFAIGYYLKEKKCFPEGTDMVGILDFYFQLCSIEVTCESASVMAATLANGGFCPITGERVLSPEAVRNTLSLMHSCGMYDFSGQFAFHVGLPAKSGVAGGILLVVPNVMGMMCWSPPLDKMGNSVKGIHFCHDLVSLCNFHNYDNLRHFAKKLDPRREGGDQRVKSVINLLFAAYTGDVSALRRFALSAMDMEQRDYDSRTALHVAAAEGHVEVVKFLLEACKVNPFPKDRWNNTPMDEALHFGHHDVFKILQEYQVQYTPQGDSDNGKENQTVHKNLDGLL

[3] = molecular target: T2, Glutaminase liver isoform, mitochondrial (Homo sapiens, UniProt Q9UI32); experiment: Inhibition of GLS2 (unknown origin)
T2 sequence (Q9UI32 whole entry): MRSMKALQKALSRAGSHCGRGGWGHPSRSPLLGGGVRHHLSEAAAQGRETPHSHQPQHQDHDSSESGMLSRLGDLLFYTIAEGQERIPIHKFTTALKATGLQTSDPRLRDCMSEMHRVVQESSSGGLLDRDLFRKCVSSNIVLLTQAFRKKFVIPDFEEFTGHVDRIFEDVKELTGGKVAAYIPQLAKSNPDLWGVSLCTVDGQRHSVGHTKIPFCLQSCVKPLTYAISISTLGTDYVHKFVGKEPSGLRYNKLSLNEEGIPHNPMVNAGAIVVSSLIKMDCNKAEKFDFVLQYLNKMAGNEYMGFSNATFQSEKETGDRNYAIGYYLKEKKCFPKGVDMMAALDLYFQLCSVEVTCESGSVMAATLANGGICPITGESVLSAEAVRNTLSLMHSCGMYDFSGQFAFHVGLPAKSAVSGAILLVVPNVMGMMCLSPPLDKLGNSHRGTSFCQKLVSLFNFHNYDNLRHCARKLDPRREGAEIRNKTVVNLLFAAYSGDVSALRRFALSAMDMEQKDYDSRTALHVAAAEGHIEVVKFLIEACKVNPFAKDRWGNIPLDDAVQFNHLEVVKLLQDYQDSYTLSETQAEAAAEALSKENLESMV

Homo sapiens = species: Homo sapiens; experiment: Selectivity ratio of IC50 for GLS2 (unknown origin) to IC50 for GLS1 (unknown origin)
A549 [4] = experiment: Inhibition of glutaminase in human A549 cells assessed as ratio of glutamine to glutamate level (Rv b= 0.45 +/- 0.011); assay type: cell-based
A549 [5] = experiment: Inhibition of colony formation in human A549 cells at 2 to 8 uM; assay type: functional, cell-based; details: dose 2-8 µM
HCT-116 [6] = experiment: Inhibition of colony formation in human HCT-116 cells at 2 to 8 uM; assay type: functional, cell-based; details: dose 2-8 µM
[7] = molecular target: T3, Glutaminase kidney isoform, mitochondrial (Homo sapiens) (UniProt O94925); experiment: Potency index, ratio of BPTES IC50 to test compound IC50 for inhibition of GLS1 (unknown origin)
T3 sequence (whole entry): T1 sequence (O94925 whole entry)

[8] = human, microsomes
Description: Metabolic stability in human liver microsome assessed as intrinsic clearance

HCT-116 [9] = experiment: cells; details: Homo sapiens
in vitro = details: human, liver microsomes
A549 [10] = experiment: Potency index, ratio of BPTES IC50 to test compound IC50 for antiproliferative activity against human A549 cells; assay type: functional
HCT-116 [11] = experiment: Potency index, ratio of BPTES IC50 to test compound IC50 for antiproliferative activity against human HCT-116 cells; assay type: functional
[12] = Cmax in rat at 5 mg/kg, iv; assay type: ADME, organism-based; set-up: dose 5 mg/kg, route iv; details: in vivo
[13] = Cmax in rat at 5 mg/kg, po; assay type: ADME, organism-based; set-up: dose 5 mg/kg, route po; details: in vivo
[14] = AUC(0 to t) in rat at 5 mg/kg, iv; assay type: ADME, organism-based; set-up: dose 5 mg/kg, route iv; details: in vivo
[15] = AUC(0 to t) in rat at 5 mg/kg, po; assay type: ADME, organism-based; set-up: dose 5 mg/kg, route po; details: in vivo
[16] = AUC(0 to t) in rat at 3 mg/kg, iv; assay type: ADME, organism-based; set-up: dose 3 mg/kg, route iv; details: in vivo
A549 [17] = experiment: Antitumor activity against human A549 cells xenografted in mouse model assessed as tumor growth inhibition at 100 mg/kg once daily via oral gavage administered for 28 days relative to control; assay type: functional; set-up: scale not given: the % may be the effect or the level left; details: time 28 day
[18] = Oral bioavailability in rat at 5 mg/kg; assay type: ADME, organism-based; details: in vivo
HCT-116 [19] = experiment: Antitumor activity against human HCT-116 cells xenografted in mouse model assessed as tumor growth inhibition at 100 mg/kg once daily via oral gavage administered for 28 days relative to control; assay type: functional; set-up: scale not given: the % may be the effect or the level left; details: time 28 day
A549 [20] = experiment: Induction of apoptosis in human A549 cells assessed as early apoptotic cells at 1 uM incubated for 48 hrs by annexin V-FITC and propidium iodide based flow cytometry analysis (Rvb =12.289%); assay type: functional
A549 [21] = experiment: Induction of apoptosis in human A549 cells assessed as early apoptotic cells at 5 uM incubated for 48 hrs by annexin V-FITC and propidium iodide based flow cytometry analysis (Rvb =12.289%); assay type: functional
A549 [22] = experiment: Induction of apoptosis in human A549 cells assessed as early apoptotic cells at 10 uM incubated for 48 hrs by annexin V-FITC and propidium iodide based flow cytometry analysis (Rvb =12.289%); assay type: functional
A549 [23] = experiment: Induction of apoptosis in human A549 cells assessed as late apoptotic cells at 1 uM incubated for 48 hrs by annexin V-FITC and propidium iodide based flow cytometry analysis (Rvb =9.696%); assay type: functional
A549 [24] = experiment: Induction of apoptosis in human A549 cells assessed as late apoptotic cells at 5 uM incubated for 48 hrs by annexin V-FITC and propidium iodide based flow cytometry analysis (Rvb =9.696%); assay type: functional
A549 [25] = experiment: Induction of apoptosis in human A549 cells assessed as late apoptotic cells at 10 uM incubated for 48 hrs by annexin V-FITC and propidium iodide based flow cytometry analysis (Rvb =9.696%); assay type: functional
HCT-116 [26] = experiment: Antitumor activity against human HCT-116 cells xenografted in mouse model assessed as reduction in tumor cells at 100 mg/kg administered via oral gavage for 28 days; assay type: functional, organism-based; details: time 28.0 day
in vivo [27] = details: rat, iv, 5 mg/kg
in vivo [28] = details: rat, po, 5 mg/kg

SMILES | IC50 (A549 [1]) | IC50 [2] | IC50 [3] | Ratio IC50 (Homo sapiens) | CLH [8] | IC50 (HCT-116 [9]) | half-life (in vitro) | Ratio (A549 [4]) | inhibition (A549 [5]) | inhibition (HCT-116 [6]) | further results
C=CCCC(=O)N1CCC(CNC(=O)c2ccc(COCCC3CCN(c4nnc(NC(=O)Cc5ccccc5)s4)CC3)cc2)CC1 | 1360 nM | 268 nM | – | – | – | 2070 nM | – | – | Active | Active | –
CCCCCCN1CCC(CNC(=O)c2ccc(COCCC3CCN(c4nnc(NC(=O)Cc5ccccc5)s4)CC3)cc2)CC1 | 740 nM | 88 nM | > 15000 nM | > 100 | 22.3 g/mL/min | 340 nM | > 2 h | 1.42 | – | – | –
CN1CCN(c2cccc(NC(=O)c3cccc(CN4CCN(c5nnc(NC(=O)Cc6ccccc6)s5)CC4)c3)c2)CC1 | 870 nM | 65 nM | > 15000 nM | > 100 | 21.2 g/mL/min | 1130 nM | > 2 h | 1.17 | Active | Active | –
CCCN1CCC(CNC(=O)c2ccc(COCCC3CCN(c4nnc(NC(=O)Cc5ccccc5)s4)CC3)cc2)CC1 | 1320 nM | 290 nM | – | – | – | 1690 nM | – | – | – | – | Ratio IC50 (A549 [10]): 20; Ratio IC50 (HCT-116 [11]): 20
O=C(Cc1ccccc1)Nc1nnc(CCSCCc2nnc(NC(=O)Cc3ccccc3)s2)s1 | 49000 nM | – | – | – | – | 44000 nM | – | – | Active | Active | Cmax [12]: 493 ng/mL; Cmax [13]: 17.8 ng/mL; AUCt [14]: 543.3 ng·h/mL; AUC(0-t) [15]: 12.5 ng·h/mL; AUC(0-t) [16]: 2090 ng·h/mL; Activity (A549 [17]): 18.8%; bioavailability [18]: 2.3%; Activity (HCT-116 [19]): 22.3%; Activity (A549 [20]): 15.403%; Activity (A549 [21]): 15.055%; Activity (A549 [22]): 9.331%; Activity (A549 [23]): 8.746%; Activity (A549 [24]): 11.666%; Activity (A549 [25]): 14.31%; Activity (HCT-116 [26]): Active; half-life (in vivo [27]): 3.8 h; half-life (in vivo [28]): 2.6 h
CN1CCN(c2cccc(NC(=O)c3ccc(CN4CCN(c5nnc(NC(=O)Cc6ccccc6)s5)CC4)cc3)c2)CC1 | 970 nM | 79 nM | > 15000 nM | > 100 | 60.3 g/mL/min | 520 nM | 1.04 h | 1.1 | – | – | –
CN1CCN(c2ccc(C(=O)Nc3ccc(CN4CCN(c5nnc(NC(=O)Cc6ccccc6)s5)CC4)cc3)cc2)CC1 | 760 nM | 66 nM | > 15000 nM | > 100 | 56.4 g/mL/min | 530 nM | 1.12 h | 0.8 | – | – | –

Continued by falling IC50 (A549 [1]), values first:

IC50 (A549 [1]) | IC50 [2] | IC50 [3] | Ratio IC50 (Homo sapiens) | CLH [8] | IC50 (HCT-116 [9]) | half-life (in vitro) | SMILES | Ratio (A549 [4]) | inhibition (A549 [5]) | inhibition (HCT-116 [6]) | further results
2310 nM | 320 nM | – | – | – | 1510 nM | – | CN1CCC(CNC(=O)c2ccc(COCCC3CCN(c4nnc(NC(=O)Cc5ccccc5)s4)CC3)cc2)CC1 | – | – | – | Ratio IC50 (A549 [10]): 20; Ratio IC50 (HCT-116 [11]): 20
980 nM | 85 nM | > 15000 nM | > 100 | 46.8 g/mL/min | 550 nM | > 2 h | Cc1ccccc1CN1CCC(CNC(=O)c2cccc(COCCC3CCN(c4nnc(NC(=O)Cc5ccccc5)s4)CC3)c2)CC1 | 1.49 | Active | Active | Ratio IC50 [7]: 50
650 nM | 62 nM | > 15000 nM | > 100 | 35.8 g/mL/min | 260 nM | > 2 h | CN1CCN(c2cccc(NC(=O)c3ccc(COCCC4CCN(c5nnc(NC(=O)Cc6ccccc6)s5)CC4)cc3)c2)CC1 | 0.74 | – | – | –
